Data as given in patent US9981918B2, “Kynurenine-3-monooxygenase inhibitors, pharmaceutical compositions, and methods of use thereof” (CHDI Foundation, Inc., priority 2011, dated 2018).

Test system: KMO
Assay: KMO inhibition: L-Kynurenine hydroxylation to 3-Hydroxy-Kynurenine monitored by LC/MS
Format: biochemical
Conditions: compound at 10 uM; footnote: some portion of activity of amides may be due to contribution of acid precursor
Experimental: A generalized procedure for monitoring L-Kynurenine (KYN) hydroxylation to form product 3-Hydroxy-Kynurenine (30H-KYN) by LC/MS is described below. Product is quantified by multiple reaction monitoring using MS.
A method of monitoring L-Kynurenine (KYN) hydroxylation to form product 3-Hydroxy-Kynurenine (30H-KYN) by LC/MS is described below. Product is quantified by multiple reaction monitoring.
• Compound: Stock concentrations: 10 mM in 100% DMSO • Enzyme: KMO enzyme prepared at Evotec via mitochondria isolation from CHO-GST HIS KMO cells • Substrate: L-Kynurenine (Sigma: Cat# K3750) • [stock concentration: 10 mM in 100 mM potassium phosphate buffer, pH 7.4]
A method of monitoring L-Kynurenine (KYN) hydroxylation to form 3-Hydroxy-Kynurenine (30H-KYN) by LC/MS is described. Product is quantified by multiple reaction monitoring (MRM method).

Question: For O=C(O)c1cc(-c2cc(Cl)c3c(c2)CCCO3)ncn1 [6-(8-Chloro-chroman-6-yl)-pyrimidine-4-carboxylic acid], which “% Inhibition at 10 uM*” value is on record?
Answer: 100%

Question: For COCc1ccc(-c2cc(C(=O)O)ncn2)cc1Cl [6-[3-chloro-4-(methoxymethyl)phenyl]pyrimidine-4-carboxylic acid], which “% Inhibition at 10 uM*” value is on record?
Answer: 105%

Question: Which “% Inhibition at 10 uM*” value does the source give for O=C(O)c1cc(-c2ccc(OC3CC3)c(Cl)c2)ccn1 [4-(3-Chloro-4-cyclopropoxy-phenyl)-pyridine-2-carboxylic acid] here?
Answer: 100%

Question: How did the “% Inhibition at 10 uM*” value turn out when Cc1nc2cc(-c3cc(C(=O)O)ncn3)cc(Cl)c2o1 [6-(7-chloro-2-methyl-1,3-benzoxazol-5-yl)pyrimidine-4-carboxylic acid] was run?
Answer: 102%

Question: Cc1nc2c(Cl)cc(-c3cc(C(=O)O)ncn3)cc2o1 [6-(4-chloro-2-methyl-1,3-benzoxazol-6-yl)pyrimidine-4-carboxylic acid] was tested. Which “% Inhibition at 10 uM*” value did it give?
Answer: 102%

Question: How did the “% Inhibition at 10 uM*” value turn out when O=C(O)c1cc(-c2ccc(C(=O)C3CC3)c(Cl)c2)ncn1 [6-(3-chloro-4-cyclopropanecarbonylphenyl)pyrimidine-4-carboxylic acid] was run?
Answer: 101%

Question: With CCC(C)Oc1ccc(-c2ccnc(C(=O)O)c2)cc1Cl (stereo in doubt) [listing 1 of 2 here] as the molecule, how does the “% Inhibition at 10 uM*” value read?
Answer: 50%

Question: With CCC(C)Oc1ccc(-c2ccnc(C(=O)O)c2)cc1Cl (stereo in doubt) [listing 2 of 2 here] as the molecule, how does the “% Inhibition at 10 uM*” value read?
Answer: 82%

Question: With CCC(C)Oc1ccc(-c2cc(C(=O)O)ncn2)cc1Cl (stereo in doubt) [6-(4-(S)-sec-Butoxy-3-chloro-phenyl)-pyrimidine-4-carboxylic acid] as the molecule, how does the “% Inhibition at 10 uM*” value read?
Answer: 100%

Question: O=S(=O)(Nc1cc(-c2ccc(OC3CC3)c(Cl)c2)ncn1)c1ccccc1F [N-[6-(3-chloro-4-cyclopropoxyphenyl)pyrimidin-4-yl]-2-fluorobenzene-1-sulfonamide] was tested. Which “% Inhibition at 10 uM*” value did it give?
Answer: 96%

Question: Which “% Inhibition at 10 uM*” value does the source give for O=S(=O)(Nc1cc(-c2ccc(OC3CC3)c(Cl)c2)ncn1)C1CC1 [N-[6-(3-chloro-4-cyclopropoxyphenyl)pyrimidin-4-yl]cyclopropanesulfonamide] here?
Answer: 33%

Question: With O=C(O)c1ncnc(-c2ccc(OC3CC3)c(Cl)c2)c1CO [6-(3-chloro-4-cyclopropoxyphenyl)-5-(hydroxymethyl)pyrimidine-4-carboxylic acid] as the molecule, how does the “% Inhibition at 10 uM*” value read?
Answer: 100%

Question: With Cc1nc(C(=O)O)cc(-c2ccc(OC(C)C)c(Cl)c2)n1 [6-(3-Chloro-4-isopropoxy-phenyl)-2-methyl-pyrimidine-4-carboxylic acid] as the molecule, how does the “% Inhibition at 10 uM*” value read?
Answer: 70%

Question: Which “% Inhibition at 10 uM*” value does the source give for O=C1OCCc2c1ncnc2-c1ccc(OC2CC2)c(Cl)c1 [4-(3-chloro-4-cyclopropoxyphenyl)-5H,6H,8H-pyrano[3,4-d]pyrimidin-8-one] here?
Answer: 100%

Question: How did the “% Inhibition at 10 uM*” value turn out when CN(C)Cc1ccc(-c2cc(C(=O)O)ncn2)cc1Cl [6-{3-chloro-4-[(dimethylamino)methyl]phenyl}pyrimidine-4-carboxylic acid] was run?
Answer: 65%

Question: Which “% Inhibition at 10 uM*” value does the source give for O=C(Nc1cccnc1)c1cc(-c2ccc(Cl)c(OC3CCOC3)c2)ncn1 (stereo not drawn) [6-[4-Chloro-3-(tetrahydro-furan-3-yloxy)-phenyl]-pyrimidine-4-carboxylic acid pyridin-3-ylamide] here?
Answer: 88.39%

Question: Which “% Inhibition at 10 uM*” value does the source give for CC(Oc1ccc(-c2cc(C(=O)O)ncn2)cc1Cl)C(F)(F)F (stereo not drawn) [6-[3-Chloro-4-(2,2,2-trifluoro-1-methyl-ethoxy)-phenyl]-pyrimidine-4-carboxylic acid] here?
Answer: 94%

Question: How did the “% Inhibition at 10 uM*” value turn out when O=C(O)c1cc(-c2ccc3ncccc3c2)ncn1 [6-Quinolin-6-yl-pyrimidine-4-carboxylic acid] was run?
Answer: 100%

Question: CN(c1ccc(-c2cc(C(=O)O)ncn2)cc1Cl)C1CC1 [6-{3-chloro-4-[cyclopropyl(methyl)amino]phenyl}pyrimidine-4-carboxylic acid] was tested. Which “% Inhibition at 10 uM*” value did it give?
Answer: 96%

Question: O=C(O)c1cc(-c2cc(Cl)c3nccnc3c2)ncn1 [6-(8-chloroquinoxalin-6-yl)pyrimidine-4-carboxylic acid] was tested. Which “% Inhibition at 10 uM*” value did it give?
Answer: 102%

Question: With CN1CCCc2cc(-c3cc(C(=O)O)ncn3)cc(Cl)c21 [6-(8-chloro-1-methyl-1,2,3,4-tetrahydroquinolin-6-yl)pyrimidine-4-carboxylic acid] as the molecule, how does the “% Inhibition at 10 uM*” value read?
Answer: 100%

Question: How did the “% Inhibition at 10 uM*” value turn out when O=C([O-])c1cc(-c2cc(Cl)c3ncccc3c2)ncn1.[Na+] [6-(8-chloroquinolin-6-yl)pyrimidine-4-carboxylate] was run?
Answer: 100%

Question: With O=C(O)c1cc(-c2ccc3c(c2)OCO3)ncn1 [6-(2H-1,3-benzodioxol-5-yl)pyrimidine-4-carboxylic acid] as the molecule, how does the “% Inhibition at 10 uM*” value read?
Answer: 101%

Question: Which “% Inhibition at 10 uM*” value does the source give for CSc1ccc(-c2cc(C(=O)O)ncn2)cc1Cl [6-[3-chloro-4-(methylsulfanyl)phenyl]pyrimidine-4-carboxylic acid] here?
Answer: 103%

Question: With O=C1OCc2c1ncnc2-c1ccc(OC2CC2)c(Cl)c1 [4-(3-chloro-4-cyclopropoxyphenyl)-5H,7H-furo[3,4-d]pyrimidin-7-one] as the molecule, how does the “% Inhibition at 10 uM*” value read?
Answer: 100%

Question: With Nc1cc(-c2cc(C(=O)O)ncn2)ccc1Cl [6-(3-Amino-4-chloro-phenyl)-pyrimidine-4-carboxylic acid] as the molecule, how does the “% Inhibition at 10 uM*” value read?
Answer: 101.01%

Question: How did the “% Inhibition at 10 uM*” value turn out when CC(C)Oc1ccc(-c2ccnc(C(=O)O)c2)cc1Cl [4-(3-Chloro-4-isopropoxy-phenyl)-pyridine-2-carboxylic acid] was run?
Answer: 80%

Question: With O=C(O)c1cc(-c2cc(Cl)c3occc3c2)ncn1 [6-(7-Chloro-benzofuran-5-yl)-pyrimidine-4-carboxylic acid] as the molecule, how does the “% Inhibition at 10 uM*” value read?
Answer: 100%

Question: Which “% Inhibition at 10 uM*” value does the source give for CC(C)c1ccc(-c2cc(C(=O)O)ncn2)cc1Cl [6-(3-Chloro-4-isopropyl-phenyl)-pyrimidine-4-carboxylic acid] here?
Answer: 100%

Question: With Cn1c(=O)oc2c(Cl)cc(-c3cc(C(=O)O)ncn3)cc21 [6-(7-chloro-3-methyl-2-oxo-2,3-dihydro-1,3-benzoxazol-5-yl)pyrimidine-4-carboxylic acid] as the molecule, how does the “% Inhibition at 10 uM*” value read?
Answer: 100%

Question: For O=C(O)c1cc(-c2cc(Cl)c3c(c2)CCO3)ncn1 [6-(7-chloro-2,3-dihydro-1-benzofuran-5-yl)pyrimidine-4-carboxylic acid], which “% Inhibition at 10 uM*” value is on record?
Answer: 102%

Question: Which “% Inhibition at 10 uM*” value does the source give for O=C(O)c1cc(-c2ccc(C(O)C3CC3)c(Cl)c2)ncn1 (stereo not drawn) [6-{3-chloro-4-[cyclopropyl(hydroxy)methyl]phenyl}pyrimidine-4-carboxylic acid] here?
Answer: 90%

Question: For O=C(O)c1cc(-c2ccc(OCCN3CCCCC3)c(Cl)c2)ncn1 [6-[3-Chloro-4-(2-piperidin-1-yl-ethoxy)-phenyl]-pyrimidine-4-carboxylic acid], which “% Inhibition at 10 uM*” value is on record?
Answer: 90%

Question: Which “% Inhibition at 10 uM*” value does the source give for C[S+]([O-])c1ccc(-c2cc(C(=O)O)ncn2)cc1Cl (stereo not drawn) [6-[3-chloro-4-(methylsulfinyl)phenyl]pyrimidine-4-carboxylic acid] here?
Answer: 100%

Question: With O=C(OC[C@H]1OC(O)[C@H](O)[C@@H](O)[C@@H]1O)c1cc(-c2ccc(OC3CC3)c(Cl)c2)ncn1 (stereo partly drawn) [[(2R,3S,4S,5R)-3,4,5,6-tetrahydroxyoxan-2-yl]methyl 6-(3-chloro-4-cyclopropoxyphenyl)pyrimidine-4-carboxylate] as the molecule, how does the “% Inhibition at 10 uM*” value read?
Answer: 102%

Question: How did the “% Inhibition at 10 uM*” value turn out when O=S(=O)(Nc1cc(-c2ccc(OC3CC3)c(Cl)c2)ncn1)c1ccccc1 [N-[6-(3-chloro-4-cyclopropoxyphenyl)pyrimidin-4-yl]benzenesulfonamide] was run?
Answer: 73%

Question: Which “% Inhibition at 10 uM*” value does the source give for Cc1nc(C(=O)O)cc(-c2ccc(C)c(F)c2)n1 [6-(3-Fluoro-4-methyl-phenyl)-2-methyl-pyrimidine-4-carboxylic acid] here?
Answer: 96%

Question: With O=C(O)c1cc(-c2ccc(OC3CCNC3)c(Cl)c2)ncn1 (stereo not drawn) [6-[3-Chloro-4-(pyrrolidin-3-yloxy)-phenyl]-pyrimidine-4-carboxylic acid] as the molecule, how does the “% Inhibition at 10 uM*” value read?
Answer: 80%

Question: How did the “% Inhibition at 10 uM*” value turn out when Cc1c(C(=O)O)ncnc1-c1ccc(OC2CC2)c(Cl)c1 [6-(3-chloro-4-cyclopropoxyphenyl)-5-methylpyrimidine-4-carboxylate] was run?
Answer: 100%

Question: O=C(O)c1cc(-c2ccc(NC3CC3)c(Cl)c2)ncn1 [6-[3-chloro-4-(cyclopropylamino)phenyl]pyrimidine-4-carboxylic acid] was tested. Which “% Inhibition at 10 uM*” value did it give?
Answer: 101%

Question: How did the “% Inhibition at 10 uM*” value turn out when O=S(=O)(Nc1cc(-c2ccc(OC3CC3)c(Cl)c2)ncn1)c1ccc(OC(F)(F)F)cc1 [N-[6-(3-chloro-4-cyclopropoxyphenyl)pyrimidin-4-yl]-4-(trifluoromethoxy)benzene-1-sulfonamide] was run?
Answer: 88%

Question: Which “% Inhibition at 10 uM*” value does the source give for O=C(O)c1cc(-c2ccc(OC3CC3)c(Cl)c2)ncn1 [6-(3-Chloro-4-cyclopropoxy-phenyl)-pyrimidine-4-carboxylic acid] here?
Answer: 100%

Question: With CS(=O)(=O)c1ccc(-c2cc(C(=O)O)ncn2)cc1Cl [6-[3-chloro-4-(methylsulfonyl)phenyl]pyrimidine-4-carboxylic acid] as the molecule, how does the “% Inhibition at 10 uM*” value read?
Answer: 100%

Question: How did the “% Inhibition at 10 uM*” value turn out when O=S(=O)(Nc1cc(-c2ccc(OC3CC3)c(Cl)c2)ncn1)c1ccc(F)cc1 [N-[6-(3-chloro-4-cyclopropoxyphenyl)pyrimidin-4-yl]-4-fluorobenzene-1-sulfonamide] was run?
Answer: 98%

Question: O=C(O)c1cc(-c2cc(Cl)c3oc(C4CC4)nc3c2)ncn1 [6-(7-chloro-2-cyclopropyl-1,3-benzoxazol-5-yl)pyrimidine-4-carboxylic acid] was tested. Which “% Inhibition at 10 uM*” value did it give?
Answer: 100%

Question: Which “% Inhibition at 10 uM*” value does the source give for O=C(O)c1cc(-c2cc(Cl)c3c(c2)CCCN3)ncn1 [6-(8-chloro-1,2,3,4-tetrahydroquinolin-6-yl)pyrimidine-4-carboxylate] here?
Answer: 100%

Question: Which “% Inhibition at 10 uM*” value does the source give for CC(C)c1ccc(-c2cc(C(=O)O)ncn2)cc1F [6-(3-Fluoro-4-isopropyl-phenyl)-pyrimidine-4-carboxylic acid] here?
Answer: 85%

Question: CCC(C)Oc1ccc(-c2cc(C(=O)O)ncn2)cc1Cl (stereo in doubt) [6-(4-(R)-sec-Butoxy-3-chloro-phenyl)-pyrimidine-4-carboxylic acid] was tested. Which “% Inhibition at 10 uM*” value did it give?
Answer: 100%
